Data on four compounds can be found in article PMC9921851, “Synthesis and Preclinical Evaluation of Three Novel ^68Ga-Labeled Bispecific PSMA/FAP-Targeting Tracers for Prostate Cancer Imaging” (Molecules, 2023).

The IC50 is the midpoint of a concentration-inhibition curve.

Structures are written as SMILES.

The target in one data set is T1, recombinant human FAP (Homo sapiens, UniProt Q12884).
T1 construct: purchased Biolegend
T1 sequence (Q12884 1-760): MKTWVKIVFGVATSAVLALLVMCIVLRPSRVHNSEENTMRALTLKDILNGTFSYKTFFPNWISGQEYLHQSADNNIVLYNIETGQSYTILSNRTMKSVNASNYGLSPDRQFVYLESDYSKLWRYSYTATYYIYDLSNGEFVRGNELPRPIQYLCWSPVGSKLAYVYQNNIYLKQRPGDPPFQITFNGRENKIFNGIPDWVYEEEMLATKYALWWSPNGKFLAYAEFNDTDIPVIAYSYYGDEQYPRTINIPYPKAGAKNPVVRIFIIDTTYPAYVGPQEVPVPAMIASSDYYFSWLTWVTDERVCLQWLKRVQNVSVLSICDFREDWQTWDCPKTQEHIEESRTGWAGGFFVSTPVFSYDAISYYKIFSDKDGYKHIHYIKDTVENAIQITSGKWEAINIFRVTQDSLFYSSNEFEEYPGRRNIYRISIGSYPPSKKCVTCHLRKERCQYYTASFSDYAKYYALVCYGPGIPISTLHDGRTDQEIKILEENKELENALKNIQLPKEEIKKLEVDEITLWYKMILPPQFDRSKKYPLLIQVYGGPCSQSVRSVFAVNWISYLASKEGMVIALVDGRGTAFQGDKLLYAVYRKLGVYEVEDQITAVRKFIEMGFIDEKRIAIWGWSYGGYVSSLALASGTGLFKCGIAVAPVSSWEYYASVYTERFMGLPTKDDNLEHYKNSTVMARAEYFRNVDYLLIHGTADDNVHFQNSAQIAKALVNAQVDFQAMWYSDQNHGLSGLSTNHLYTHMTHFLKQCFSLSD
The data set is described as follows: In vitro FAP fluorescence enzyme-inhibition assay (Suc-Gly-Pro-AMC substrate). The following applies: n = 3. Format: biochemical. The procedure: The binding affinities of Ga-AV01017, Ga-AV01030, Ga-AV01038, Ga-HTK03041, and Ga-FAPI-04 to human FAP were measured by an enzyme-inhibition assay using Suc-Gly-Pro-AMC as the FAP substrate. The human FAP enzymatic activity on the substrate was inhibited by Ga-complexed standards in a dose-dependent manner (Figure 3B).
The half maximal inhibitory concentration (IC50) values of the tested compounds for FAP were measured by in vitro enzymatic assay. The recombinant human FAP (Biolegend; 0.2 µg/mL, 50 µL) was added into a costar 96-well plate. PBS and varied concentrations (0.2 pM to 2 µM) of tested nonradioactive Ga-complexed standards were added to each well (in duplicate) containing the recombinant human FAP. After being incubated for 30 min at 37 °C, 50 µL of Suc-Gly-Pro-AMC (2 µM, Bachem) was added to each well. The fluorescent signals were acquired at 15, 30, 45, and 60 min using a FlexStation 3 Multi-Mode Microplate Reader with excitation at 380 nm and emission at 460 nm. The IC50(FAP) was calculated using a “nonlinear fit model” built-in model in GraphPad Prism 7.02 software

Data set [1] has as its system PSMA-expressing LNCaP tumor xenografts. The data set is described as follows: Ex vivo biodistribution in LNCaP tumor-bearing mice. The following applies: 1 h post injection, range over LNCaP and HEK293T:hFAP tumor-bearing mice. The procedure: Biodistribution studies were conducted at 1 h post injection with ^68Ga-labeled AV01017, AV01030, AV01038, HTK03041, and FAPI-04 in LNCaP tumor-bearing mice (Figure 5 and Table S4, Supplementary Materials). The results were consistent with the observation from their PET images. Tumor uptake values for [^68Ga]Ga-AV01017, [^68Ga]Ga-AV01030, [^68Ga]Ga-AV01038, [^68Ga]Ga-HTK03041, and [^68Ga]Ga-FAPI-04 were 4.38 ± 0.55, 5.17 ± 0.51, 4.25 ± 0.86, 23.1 ± 6.11, and 3.15 ± 1.43 %ID/g, respectively. […] Although not statistically significant, the bispecific tracers with a longer linker tend to have a higher blood uptake value (9.24 ± 1.55 %ID/g for [^68Ga]Ga-AV01017; 7.07 ± 0.31%ID/g for [^68Ga]Ga-AV01038; 5.75 ± 0.59 %ID/g for [^68Ga]Ga-AV01030) and a lower tumor-to-blood ratio (0.48 ± 0.11 for [^68Ga]Ga-AV01017; 0.60 ± 0.13 for [^68Ga]Ga-AV01038; 0.89 ± 0.03 for [^68Ga]Ga-AV01030).
Imaging and biodistribution studies were performed using male NOD.Cg-Rag1tm1Mom Il2rgtm1Wjl/SzJ (NRG) mice following previously published procedures. The experiments were conducted according to the guidelines established by the Canadian Council on Animal Care and approved by Animal Ethics Committee of the University of British Columbia. The mice were briefly sedated by inhalation of 2.5% isoflurane in oxygen, and 100 µL LNCaP (2 × 10^5 cells) or HEK293T:hFAP (8.5 × 10^6 cells) cells were inoculated subcutaneously behind the left shoulder. When the tumor grew to 5–8 mm in diameter over 3–4 weeks and 4–5 weeks for HEK293T:hFAP and LNCaP tumors, respectively, the mice were used for PET/CT imaging and biodistribution studies.
For biodistribution studies, the mice were injected with the radiotracer (~2–4 MBq) as described above. At 1 h post injection, the mice were euthanized by CO2 inhalation. Blood was withdrawn by cardiac puncture, and organs/tissues of interest were collected, weighed, and counted using a Perkin Elmer (Waltham, MA, USA) Wizard2 2480 automatic gamma counter.

For the next data set, the target named is T2, PSMA (Homo sapiens, UniProt Q04609).
T2 construct: endogenous in cells; host or cells: LNCaP cells (ATCC via Cedarlane)
T2 sequence (Q04609 whole entry): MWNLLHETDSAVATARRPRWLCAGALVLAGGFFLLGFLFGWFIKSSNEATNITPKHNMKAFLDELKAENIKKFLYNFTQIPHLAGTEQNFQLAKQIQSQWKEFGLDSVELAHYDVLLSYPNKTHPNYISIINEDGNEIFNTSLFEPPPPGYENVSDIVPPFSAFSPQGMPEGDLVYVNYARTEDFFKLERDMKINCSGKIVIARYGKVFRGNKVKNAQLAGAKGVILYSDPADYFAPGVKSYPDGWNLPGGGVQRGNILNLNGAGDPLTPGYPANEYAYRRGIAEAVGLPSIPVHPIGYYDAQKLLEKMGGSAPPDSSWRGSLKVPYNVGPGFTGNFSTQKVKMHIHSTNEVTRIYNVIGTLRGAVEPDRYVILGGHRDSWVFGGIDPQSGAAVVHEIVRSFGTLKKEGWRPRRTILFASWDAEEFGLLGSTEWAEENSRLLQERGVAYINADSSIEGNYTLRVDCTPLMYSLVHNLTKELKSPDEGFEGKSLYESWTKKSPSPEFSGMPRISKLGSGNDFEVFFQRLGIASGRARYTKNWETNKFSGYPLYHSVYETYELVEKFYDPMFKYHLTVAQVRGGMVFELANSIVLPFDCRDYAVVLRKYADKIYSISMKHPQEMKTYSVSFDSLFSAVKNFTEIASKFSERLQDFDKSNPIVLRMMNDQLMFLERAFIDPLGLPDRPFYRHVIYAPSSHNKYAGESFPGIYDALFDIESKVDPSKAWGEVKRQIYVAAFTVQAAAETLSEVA
The data set is described as follows: In vitro PSMA competition binding assay ([^18F]DCFPyL displacement on LNCaP cells). The note with it: radioligand [^18F]DCFPyL, n = 3. The procedure: The binding affinities of Ga-AV01017, Ga-AV01030, Ga-AV01038, Ga-HTK03041, and Ga-FAPI-04 to PSMA were measured by a cell-based binding assay using PSMA-expressing LNCaP prostate cancer cells. The nonradioactive Ga-complexed standards, except Ga-FAPI-04, inhibited the binding of [^18F]DCFPyL to LNCaP cells in a dose-dependent manner (Figure 3A).
The PSMA binding assays were conducted following previously published procedures using LNCaP cells and [^18F]DCFPyL as the radioligand [34, 42, 43]. Data analyses of IC50 were performed using the nonlinear regression algorithm of GraphPad Prism 7 (San Diego, CA, USA) software.

In the case of `N#C[C@@H]1CC(F)(F)CN1C(=O)CNC(=O)c1ccnc2ccc(-c3cn(CC(=O)N[C@@H](CCCCNC(=O)CN4CCN(CC(=O)[O-])CCN(CC(=O)[O-])CCN(CC(=O)[O-])CC4)C(=O)NCC(=O)NC[C@H]4CC[C@H](C(=O)N[C@@H](Cc5c6ccccc6cc6ccccc56)C(=O)NCCCC[C@H](NC(=O)N[C@@H](CCC(=O)O)C(=O)O)C(=O)O)CC4)nn3)cc12.[Ga+3]` [Ga-AV01030], the figures for the IC50 on recombinant human FAP and at PSMA were 2.74 ± 0.33 nM and 71.6 ± 23 nM, respectively. In addition, the “Blood uptake values (range over both tumor models)” value in data set [1] is 5.68–5.75 %ID/g.
Consider `N#C[C@@H]1CC(F)(F)CN1C(=O)CNC(=O)c1ccnc2ccc(OCc3cn(CC(=O)N[C@@H](CCCCNC(=O)CN4CCN(CC(=O)[O-])CCN(CC(=O)[O-])CCN(CC(=O)[O-])CC4)C(=O)NCC(=O)NC[C@H]4CC[C@H](C(=O)N[C@@H](Cc5c6ccccc6cc6ccccc56)C(=O)NCCCC[C@H](NC(=O)N[C@@H](CCC(=O)O)C(=O)O)C(=O)O)CC4)nn3)cc12.[Ga+3]` [Ga-AV01038], for which the IC50 on recombinant human FAP worked out at 2.31 ± 0.13 nM; on PSMA, 29.4 ± 25.2 nM. Moreover, the “Blood uptake values (range over both tumor models)” value in data set [1] was 7.07–7.45 %ID/g.
Take `O=C([O-])CN1CCN(CC(=O)[O-])CCN(CC(=O)NC[C@H]2CC[C@H](C(=O)N[C@@H](Cc3c4ccccc4cc4ccccc34)C(=O)NCCCC[C@H](NC(=O)N[C@@H](CCC(=O)O)C(=O)O)C(=O)O)CC2)CCN(CC(=O)[O-])CC1.[Ga+3]` [Ga-HTK03041, reference compound]: the IC50 is 2010 ± 585 nM on recombinant human FAP and 0.76 ± 0.12 nM on PSMA.
In the case of `N#C[C@@H]1CC(F)(F)CN1C(=O)CNC(=O)c1ccnc2ccc(OCCCc3cn(CC(=O)N[C@@H](CCCCNC(=O)CN4CCN(CC(=O)[O-])CCN(CC(=O)[O-])CCN(CC(=O)[O-])CC4)C(=O)NCC(=O)NC[C@H]4CC[C@H](C(=O)N[C@@H](Cc5c6ccccc6cc6ccccc56)C(=O)NCCCC[C@H](NC(=O)N[C@@H](CCC(=O)O)C(=O)O)C(=O)O)CC4)nn3)cc12.[Ga+3]` [Ga-AV01017], the IC50 is 1.25 ± 0.39 nM on recombinant human FAP and 25.2 ± 10.7 nM on PSMA. In addition, the “Blood uptake values (range over both tumor models)” value in data set [1] is recorded as 9.24–11.9 %ID/g.
